Test results: patent publication US6495678B1, “Immunosuppressant containing glucopyranose derivative as active ingredient” (Ono Pharmaceutical Co., Ltd., priority 1998, dated 2002)
Several values for one entry are separate records, joined by “and”; a condition that tells them apart may be missing. Equal entries are not always repeated. Marks after values point to notes of the source that are not given here.

Assays:
[1] = test system: IFN-γ production by spleen cells; assay: In vitro OVA-stimulated IFN-γ production by spleen cells from OVA-sensitized mice; type: cell-based, mouse; conditions: for Amount of IFN-γ: Table 15, OVA-stimulated IFN-γ production, spleen cells, 96 hours, ELISA
Protocol: (§1) OVA-sensitized animals were prepared in accordance with the method of Nagai et al. (the method described in Example 2). Specifically, 0.5 ml of physiological saline containing 50 μg of OVA and 1 mg of aluminum hydroxide gel as adjuvant was injected twice at 12 day interval into the abdominal cavity of each of male Balb/c mice of 7 weeks of age for active sensitization. After 22, 26 and 30 days of the initial sensitization, each animal was forced to inhale 1% OVA solution for 30 minutes using an ultrasonic nebulizer. After 8 hours of the final antigen inhalation, the spleen was collected to prepare spleen cells. The spleen cells were cultured for 96 hours in the presence of 1 mg/ml of OVA, and the cytokine released in the culture supernatant was determined by ELISA method. Each of the compounds to be tested was added to a final concentration of 0.3, 1, 3, 10 or 30 μM simultaneously with OVA.

[2] = test system: IL-4 production by spleen cells; assay: In vitro OVA-stimulated IL-4 production by spleen cells from OVA-sensitized mice; type: cell-based, mouse; conditions: for Amount of IL-4: Table 16, OVA-stimulated IL-4 production, spleen cells, 96 hours, ELISA
Protocol: as §1

[3] = test system: IL-2 production by spleen cells; assay: In vitro OVA-stimulated IL-2 production by spleen cells from OVA-sensitized mice; type: cell-based, mouse; conditions: for Amount of IL-2: spleen cells, 1 mg/ml OVA, 96 hours, ELISA
Protocol: as §1

IL-5 production in BALF = assay: BALF IL-5 production in mouse allergic airway inflammation model; type: in vivo
Protocol: (§2) The test was carried out in accordance with the method of Nagai et al. (see H. Nagai, H. Takeda, S. Yamaguchi, H. Tanaka, A. Matsuo and N. Inagaki, “The effect of thromboxane A2 receptor antagonist BAY-u-3405 on experimental allergic reactions”, Prostaglandins, 50, 75-87, 1995). Specifically, 0.5 ml of physiological saline containing 50 μg of OVA and 1 mg of aluminum hydroxide gel as adjuvant was injected twice at 12 day interval into the abdominal cavity of each of male Balb/c mice of 7 weeks of age for active sensitization. After 22, 26 and 30 days of the initial sensitization, each animal was forced to inhale 1% OVA solution for 30 minutes using an ultrasonic nebulizer to prepare a mouse allergic airway inflammation model. Total blood and BALF were collected 8 hours after the final antigen inhalation. The collected blood was allowed to stand overnight at room temperature, and then centrifuged at 300 rpm for 15 minutes, and the light yellow transparent fraction separated into the supematant was used as an antiserum. The IgE antibody titer in the antiserum was measured by 24 hours' heterogeneous (rat) PCA. On the other hand, the collected BALF supernatant was used as a sample for cytokine measurement, and the cell pellets after preparation were counted as an index of the infiltration of inflammatory cells. Each compound to be tested was continuously administered 5 days starting from the day before each sensitization and 10 days starting from the day before inhalation, at a dose of 10, 30 or 100 mg/kg in the case of oral administration or 10 mg/kg in the case of intraperitoneal or intravenous injection. Results of the measurement of IgE antibody titer in serum and amount of IL-5 and the number of eosinophils in BALF are shown in Tables 10, 11 and 12, respectively. The treatments in each group shown in each table are as follows.
(§3) Physiological saline: physiological saline stimulation+vehicle administration
(§4) Control: OVA stimulation+vehicle administration
(§5) Compound (1): OVA stimulation+Compound (1) administration

[4] = test system: DNFB-induced mouse ear edema; assay: DNFB-induced mouse ear edema; type: in vivo; conditions: for Increasing ratio of auricle thickness: 1 hour after reaction induction
Protocol: Anti-DNP-IgE antibody (3 μg/body) was administered from the caudal vein of each of female Balb/c mice of 7 weeks of age, and the reaction was induced by applying 25 μl of a 0.15% DNFB-containing acetone:olive oil (3:1) mixed solution (hereinafter referred to as “antigen”) to each of both sides of the left and right auricles 24 hours after the administration. Each compound to be tested was administered orally or intravenously 1 hour before the reaction induction. Before the reaction induction and 1 hour after the reaction induction, auricle thickness was measured using a dial sickness gage, and the average value of the left and right auricle thicknesses was used as the measured value at respective time. The value was shown by the increasing ratio of the auricle thickness from before the reaction induction. In Table 9, treatments in each group are as follows.
Vehicle: anti-DNP-IgE antibody administration+vehicle application+vehicle administration
Control: anti-DNP-IgE antibody administration+antigen application+vehicle administration
Compound (1): anti-DNP-IgE antibody administration+antigen application+Compound (1) administration

SD rats = assay: Acute toxicity LD50, intravenous injection; type: in vivo, rat
Protocol: The toxicity of the compounds of the present invention of the formula (I) is very low and therefore, the compounds may be considered safe for pharmaceutical use. For example, LD50 of 2-deoxy-2-[3S-(9-phenylnonanoyloxy)tetradecanoyl]-amino-3-O-(9-phenylnonanoyl)-4-O-sulfo-D-glucopyranose sodium salt (The compound (1) described hereinafter) is 60-70 mg/kg on SD rats were administrated by intravenous injection.

IgE antibody production = assay: Serum IgE antibody production in mouse allergic airway inflammation model; type: in vivo; conditions: 24 hours' heterogeneous (rat) PCA
Protocol: as §2, §3, §4, §5

[5] = test system: eosinophils infiltration in BALF; assay: BALF eosinophils infiltration in mouse allergic airway inflammation model; type: in vivo
Protocol: as §2, §3, §4, §5

[6] = test system: Compound 48/80-induced scratching behavior; assay: Mouse Compound 48/80-induced itch model; type: in vivo; conditions: for The number of times of scratching: 20 minutes after injection of Compound 48/80
Protocol: This test was carried out in accordance with the method of Kubo et al. (Michinori Kubo, Hideaki Matsuda, Takeshi Itadaki, Yasuko Ido and Masayuki Yoshikawa, Studies on herb medicine and jifushi (first report), Anti-itching activity of 70% ethanol extract of jifushi and screening of effective component, Journal of the Pharmaceutical Society of Japan, 117(4), 193-201, 1997). Specifically, 0.1 ml of physiological saline containing Compound 48/80 (manufactured by Sigma Chemical Company) (100 μg) was administered subcutaneously into the dorsal part of each male ddy mouse of 6 to 7 weeks of age to induce scratching behavior. The scratching behavior was judged by measuring the number of times of scratching for 20 minutes immediately after the injection, by setting the behavior of each mouse to scratch the injected part with a hind leg for 1 second or more as one. Each compound to be tested was administered intravenously 1 hour before the induction.

[7] = 0.3 to 30 μM, spleen cells from OVA-sensitized mice

SMILES: CCCCCCCCCCC[C@@H](CC(=O)N[C@H]1C(O)O[C@H](CO)[C@@H](OS(=O)(=O)[O-])[C@@H]1OC(=O)CCCCCCCCc1ccccc1)OC(=O)CCCCCCCCc1ccccc1.[Na+] (stereo partly drawn) [Compound (1), 2-deoxy-2-[3S-(9-phenylnonanoyloxy)tetradecanoyl]amino-3-O-(9-phenylnonanoyl)-4-O-sulfo-D-glucopyranose sodium]
- Effect on in vitro OVA-stimulated IFN-γ production [1, 7]: significantly inhibited
- Amount of IFN-γ ([1]; 0.3 μM): 1462.9 ± 202.8 pg/mL
- Amount of IFN-γ ([1]; 1 μM): 658.1 ± 66.6 pg/mL
- Amount of IFN-γ ([1]; 3 μM): 457.6 ± 51.0 pg/mL
- Amount of IFN-γ ([1]; 10 μM): 349.7 ± 81.0 pg/mL
- Amount of IFN-γ ([1]; 30 μM): 160.5 ± 42.9 pg/mL
- Effect on in vitro OVA-stimulated IL-4 production ([2]; 3 to 30 μM, spleen cells from OVA-sensitized mice): significantly inhibited
- Amount of IL-4 ([2]; 0.3 μM): 253.0 ± 45.9 pg/mL
- Amount of IL-4 ([2]; 1 μM): 203.3 ± 37.3 pg/mL
- Amount of IL-4 ([2]; 3 μM): 139.0 ± 19.3 pg/mL
- Amount of IL-4 ([2]; 10 μM): 67.9 ± 8.1 pg/mL
- Amount of IL-4 ([2]; 30 μM): 12.8 ± 1.1 pg/mL
- Amount of IL-2 ([3]; 0.3 μM): 48.4 ± 3.0 pg/mL
- Amount of IL-2 ([3]; 1 μM): 36.1 ± 5.0 pg/mL
- Amount of IL-2 ([3]; 3 μM): 22.9 ± 2.9 pg/mL
- Amount of IL-2 ([3]; 10 μM): 11.7 ± 2.2 pg/mL
- Amount of IL-2 ([3]; 30 μM): 4.3 ± 1.7 pg/mL
- Effect on in vitro OVA-stimulated IL-2 production [3, 7]: significantly inhibited
- Amount of IL-5 in BALF (IL-5 production in BALF; 10 mg/kg i.p.): 9.2 ± 1.5**^b pg/BALF
- Amount of IL-5 in BALF (IL-5 production in BALF; 10 mg/kg i.v.): 16.2 ± 3.8**^b pg/BALF
- Amount of IL-5 in BALF (IL-5 production in BALF; 10 mg/kg p.o.): 65.1 ± 15.9 pg/BALF
- Amount of IL-5 in BALF (IL-5 production in BALF; 30 mg/kg p.o.): 50.8 ± 13.7 pg/BALF
- Amount of IL-5 in BALF (IL-5 production in BALF; 100 mg/kg p.o.): 26.7 ± 7.5 pg/BALF
- Increasing ratio of auricle thickness ([4]; 10 mg/kg i.v.): 16.4 ± 1.9%
- Increasing ratio of auricle thickness ([4]; 10 mg/kg p.o.): 14.3 ± 1.8%
- Inhibition of increase in the auricle thickness ([4]; 40 mg/kg oral administration, versus control): 45%
- Increasing ratio of auricle thickness ([4]; 40 mg/kg p.o.): 10.2% and 10.2 ± 1.6 %
- LD50 (SD rats): 60 to 70 mg/kg
- Serum IgE antibody titer (IgE antibody production; 10 mg/kg i.p.): 69.3 ± 17.6***^b
- Serum IgE antibody titer (IgE antibody production; 10 mg/kg i.v.): 20.0 ± 3.7***^b
- Serum IgE antibody titer (IgE antibody production; 10 mg/kg p.o.): 304.0 ± 68.2
- Serum IgE antibody titer (IgE antibody production; 30 mg/kg p.o.): 176.0 ± 35.2
- Serum IgE antibody titer (IgE antibody production; 100 mg/kg p.o.): 120.0 ± 30.1
- The number of eosinophils in BALF ([5]; 10 mg/kg i.p.): 0.0 ± 0.0*^b × 10^5 cells/BALF
- The number of eosinophils in BALF ([5]; 10 mg/kg i.v.): 0.1 ± 0.0*^b × 10^5 cells/BALF
- The number of eosinophils in BALF ([5]; 10 mg/kg p.o.): 1.4 ± 0.4 × 10^5 cells/BALF
- The number of eosinophils in BALF ([5]; 30 mg/kg p.o.): 0.7 ± 0.2 × 10^5 cells/BALF
- The number of eosinophils in BALF ([5]; 100 mg/kg p.o.): 0.3 ± 0.1 × 10^5 cells/BALF
- The number of times of scratching ([6]; 1 mg/kg intravenously): 68.6 ± 18.8
- The number of times of scratching ([6]; 3 mg/kg intravenously): 61.3 ± 9.9
- The number of times of scratching ([6]; 10 mg/kg intravenously): 26.8 ± 16.8
- The number of times of scratching ([6]; 30 mg/kg intravenously): 6.3 ± 4.4
- Effect on scratching behavior ([6]; 10 or 30 mg/kg intravenously): significantly reduced scratching behavior
